# Test system: Plasmodium berghei (Pb-Luc) exoerythrocytic-stage parasites
# Experiment: microbe, parasite or virus in culture
# Conditions: read-out: Inhibition% @ 50 uM rep1
row,Structure (SMILES),inhibition at 50 µM
1,CCN(CC)S(=O)(=O)c1ccc(-c2csc(Nc3ccc(C)c(C)c3)n2)cc1 [MMV009108],97%
2,Cc1cc(Nc2ccc3ccccc3c2)n2ncnc2n1 [MMV011099],101%
3,Cc1cc(Nc2ccc(Cl)cc2)n2nc(C(F)(F)F)nc2n1 [MMV011256],102%
4,COc1ccc(C(=O)Nc2nonc2-c2ccc(OC)c(OC)c2)cc1Cl [MMV011567],58%
5,Oc1ccccc1CN1CCN(C(c2ccccc2)c2ccccc2)CC1 [MMV011795],100%
6,COc1cccc(-c2nn(C)c3sc(C(=O)NCCN4CCN(c5ccccc5F)CC4)cc23)c1 [MMV019064],103%
7,Cc1cccc(Nc2nc(N)c3ccccc3n2)c1 [MMV019110],99%
8,CCN(Cc1ccccc1)C1CCN(Cc2cc(Br)ccc2O)CC1 [MMV019127],102%
9,CCOc1cccc(C(=O)Nc2ccc(-c3nc4ccccc4[nH]3)cc2)c1 [MMV019202],101%
10,COc1ccc(-n2ccnc2SCC(=O)Nc2cc(C)ccc2C)c(OC)c1 [MMV019258],102%
11,CCC1(C)CC(CCNCc2ccccc2O)(c2ccc(C)cc2)CCO1 (stereo not drawn) [MMV019406],102%
12,O=C(Nc1ccc(N2CCCCC2)c(Cl)c1)c1ccc(Br)o1 [MMV019700],104%
13,Fc1ccc2[nH]c3c(NCCCN4CCOCC4)ncnc3c2c1 [MMV019871],103%
14,O=C(NC1CCN(Cc2ccccc2)CC1)c1cc(-c2ccncc2)nc2ccc(Cl)cc12 [MMV020275],52%
15,CC1CN(C(=O)c2sc3ccccc3c2Cl)CC(C)O1 (stereo not drawn) [MMV020492],44%
16,CNCCCNc1ccnc2cc(Cl)ccc12 [MMV020500],104%
17,CC1CCN(Cc2ccc(NC(=O)c3cc4ccc5cccnc5c4[nH]3)cc2)CC1 [MMV020549],104%
18,COc1ccc(-c2nonc2NC(=O)c2cccc(Cl)c2)cc1OC [MMV020660],104%
19,Oc1ccccc1CNCC12CC3CC(CC(C3)C1)C2 [MMV020788],102%
20,COc1ccc(Br)cc1C1Nc2ccc3ccccc3c2C2=C1C(=O)CC(c1ccccc1)C2 (stereo not drawn) [MMV020885],102%
21,COc1cc(SC)ccc1C(=O)N1CCCC(C)C1 (stereo not drawn) [MMV056726],86%
22,CCOc1ccc(C2N(C)c3ccccc3N2C)cc1 [MMV075490],103%
23,CCOc1cc(Br)c(C(C)NC(=O)c2cccc(OC)c2)cc1OCC (stereo not drawn) [MMV665796],103%
24,FC(F)(F)c1cccc(Nc2nc(-c3ccccc3)nc3ncccc23)c1 [MMV665798],103%

# Same assay, conditions: read-out: Inhibition% @ 50 uM rep2
row,Structure (SMILES),inhibition at 50 µM
1,CCN(CC)S(=O)(=O)c1ccc(-c2csc(Nc3ccc(C)c(C)c3)n2)cc1 [MMV009108],96%
2,Cc1cc(Nc2ccc3ccccc3c2)n2ncnc2n1 [MMV011099],102%
3,Cc1cc(Nc2ccc(Cl)cc2)n2nc(C(F)(F)F)nc2n1 [MMV011256],104%
4,COc1ccc(C(=O)Nc2nonc2-c2ccc(OC)c(OC)c2)cc1Cl [MMV011567],80%
5,Oc1ccccc1CN1CCN(C(c2ccccc2)c2ccccc2)CC1 [MMV011795],102%
6,COc1cccc(-c2nn(C)c3sc(C(=O)NCCN4CCN(c5ccccc5F)CC4)cc23)c1 [MMV019064],104%
7,Cc1cccc(Nc2nc(N)c3ccccc3n2)c1 [MMV019110],98%
8,CCN(Cc1ccccc1)C1CCN(Cc2cc(Br)ccc2O)CC1 [MMV019127],104%
9,CCOc1cccc(C(=O)Nc2ccc(-c3nc4ccccc4[nH]3)cc2)c1 [MMV019202],100%
10,COc1ccc(-n2ccnc2SCC(=O)Nc2cc(C)ccc2C)c(OC)c1 [MMV019258],102%
11,CCC1(C)CC(CCNCc2ccccc2O)(c2ccc(C)cc2)CCO1 (stereo not drawn) [MMV019406],102%
12,O=C(Nc1ccc(N2CCCCC2)c(Cl)c1)c1ccc(Br)o1 [MMV019700],106%
13,Fc1ccc2[nH]c3c(NCCCN4CCOCC4)ncnc3c2c1 [MMV019871],103%
14,O=C(NC1CCN(Cc2ccccc2)CC1)c1cc(-c2ccncc2)nc2ccc(Cl)cc12 [MMV020275],39%
15,CC1CN(C(=O)c2sc3ccccc3c2Cl)CC(C)O1 (stereo not drawn) [MMV020492],44%
16,CNCCCNc1ccnc2cc(Cl)ccc12 [MMV020500],105%
17,CC1CCN(Cc2ccc(NC(=O)c3cc4ccc5cccnc5c4[nH]3)cc2)CC1 [MMV020549],106%
18,COc1ccc(-c2nonc2NC(=O)c2cccc(Cl)c2)cc1OC [MMV020660],106%
19,Oc1ccccc1CNCC12CC3CC(CC(C3)C1)C2 [MMV020788],103%
20,COc1ccc(Br)cc1C1Nc2ccc3ccccc3c2C2=C1C(=O)CC(c1ccccc1)C2 (stereo not drawn) [MMV020885],102%
21,COc1cc(SC)ccc1C(=O)N1CCCC(C)C1 (stereo not drawn) [MMV056726],93%
22,CCOc1ccc(C2N(C)c3ccccc3N2C)cc1 [MMV075490],102%
23,CCOc1cc(Br)c(C(C)NC(=O)c2cccc(OC)c2)cc1OCC (stereo not drawn) [MMV665796],104%
24,FC(F)(F)c1cccc(Nc2nc(-c3ccccc3)nc3ncccc23)c1 [MMV665798],104%

# Test system: HepG2-A16-CD81EGFP cells
# Experiment: cells
# Conditions: Homo sapiens, HepG2, read-out: % inhibition
row,Structure (SMILES),inhibition at 50 µM
1,CCN(CC)S(=O)(=O)c1ccc(-c2csc(Nc3ccc(C)c(C)c3)n2)cc1 [MMV009108],72.2%
2,Cc1cc(Nc2ccc3ccccc3c2)n2ncnc2n1 [MMV011099],88.4%
3,Cc1cc(Nc2ccc(Cl)cc2)n2nc(C(F)(F)F)nc2n1 [MMV011256],37.6%
4,COc1ccc(C(=O)Nc2nonc2-c2ccc(OC)c(OC)c2)cc1Cl [MMV011567],-1.34%
5,Oc1ccccc1CN1CCN(C(c2ccccc2)c2ccccc2)CC1 [MMV011795],77.8%
6,COc1cccc(-c2nn(C)c3sc(C(=O)NCCN4CCN(c5ccccc5F)CC4)cc23)c1 [MMV019064],53.8%
7,Cc1cccc(Nc2nc(N)c3ccccc3n2)c1 [MMV019110],91.6%
8,CCN(Cc1ccccc1)C1CCN(Cc2cc(Br)ccc2O)CC1 [MMV019127],82.2%
9,CCOc1cccc(C(=O)Nc2ccc(-c3nc4ccccc4[nH]3)cc2)c1 [MMV019202],76.2%
10,COc1ccc(-n2ccnc2SCC(=O)Nc2cc(C)ccc2C)c(OC)c1 [MMV019258],63.1%
11,CCC1(C)CC(CCNCc2ccccc2O)(c2ccc(C)cc2)CCO1 (stereo not drawn) [MMV019406],96.7%
12,O=C(Nc1ccc(N2CCCCC2)c(Cl)c1)c1ccc(Br)o1 [MMV019700],97.5%
13,Fc1ccc2[nH]c3c(NCCCN4CCOCC4)ncnc3c2c1 [MMV019871],58.8%
14,O=C(NC1CCN(Cc2ccccc2)CC1)c1cc(-c2ccncc2)nc2ccc(Cl)cc12 [MMV020275],89.1%
15,CC1CN(C(=O)c2sc3ccccc3c2Cl)CC(C)O1 (stereo not drawn) [MMV020492],25%
16,CNCCCNc1ccnc2cc(Cl)ccc12 [MMV020500],101%
17,CC1CCN(Cc2ccc(NC(=O)c3cc4ccc5cccnc5c4[nH]3)cc2)CC1 [MMV020549],95.4%
18,COc1ccc(-c2nonc2NC(=O)c2cccc(Cl)c2)cc1OC [MMV020660],92%
19,Oc1ccccc1CNCC12CC3CC(CC(C3)C1)C2 [MMV020788],94%
20,COc1ccc(Br)cc1C1Nc2ccc3ccccc3c2C2=C1C(=O)CC(c1ccccc1)C2 (stereo not drawn) [MMV020885],69.1%
21,COc1cc(SC)ccc1C(=O)N1CCCC(C)C1 (stereo not drawn) [MMV056726],65.4%
22,CCOc1ccc(C2N(C)c3ccccc3N2C)cc1 [MMV075490],88%
23,CCOc1cc(Br)c(C(C)NC(=O)c2cccc(OC)c2)cc1OCC (stereo not drawn) [MMV665796],88.4%
24,FC(F)(F)c1cccc(Nc2nc(-c3ccccc3)nc3ncccc23)c1 [MMV665798],95.3%

# Test system: HepG2-A16-CD81EGFP cells
# Experiment: cells
# Conditions: Homo sapiens, HepG2, read-out: % inhibition
# Remark: another data set of the same source
row,Structure (SMILES),inhibition at 50 µM
1,CCN(CC)S(=O)(=O)c1ccc(-c2csc(Nc3ccc(C)c(C)c3)n2)cc1 [MMV009108],80.9%
2,Cc1cc(Nc2ccc3ccccc3c2)n2ncnc2n1 [MMV011099],86.3%
3,Cc1cc(Nc2ccc(Cl)cc2)n2nc(C(F)(F)F)nc2n1 [MMV011256],37.8%
4,COc1ccc(C(=O)Nc2nonc2-c2ccc(OC)c(OC)c2)cc1Cl [MMV011567],2.69%
5,Oc1ccccc1CN1CCN(C(c2ccccc2)c2ccccc2)CC1 [MMV011795],51.4%
6,COc1cccc(-c2nn(C)c3sc(C(=O)NCCN4CCN(c5ccccc5F)CC4)cc23)c1 [MMV019064],82.3%
7,Cc1cccc(Nc2nc(N)c3ccccc3n2)c1 [MMV019110],92%
8,CCN(Cc1ccccc1)C1CCN(Cc2cc(Br)ccc2O)CC1 [MMV019127],86%
9,CCOc1cccc(C(=O)Nc2ccc(-c3nc4ccccc4[nH]3)cc2)c1 [MMV019202],88.4%
10,COc1ccc(-n2ccnc2SCC(=O)Nc2cc(C)ccc2C)c(OC)c1 [MMV019258],80.6%
11,CCC1(C)CC(CCNCc2ccccc2O)(c2ccc(C)cc2)CCO1 (stereo not drawn) [MMV019406],98.3%
12,O=C(Nc1ccc(N2CCCCC2)c(Cl)c1)c1ccc(Br)o1 [MMV019700],99%
13,Fc1ccc2[nH]c3c(NCCCN4CCOCC4)ncnc3c2c1 [MMV019871],74.2%
14,O=C(NC1CCN(Cc2ccccc2)CC1)c1cc(-c2ccncc2)nc2ccc(Cl)cc12 [MMV020275],90.6%
15,CC1CN(C(=O)c2sc3ccccc3c2Cl)CC(C)O1 (stereo not drawn) [MMV020492],23.2%
16,CNCCCNc1ccnc2cc(Cl)ccc12 [MMV020500],101%
17,CC1CCN(Cc2ccc(NC(=O)c3cc4ccc5cccnc5c4[nH]3)cc2)CC1 [MMV020549],96.7%
18,COc1ccc(-c2nonc2NC(=O)c2cccc(Cl)c2)cc1OC [MMV020660],93.3%
19,Oc1ccccc1CNCC12CC3CC(CC(C3)C1)C2 [MMV020788],95.9%
20,COc1ccc(Br)cc1C1Nc2ccc3ccccc3c2C2=C1C(=O)CC(c1ccccc1)C2 (stereo not drawn) [MMV020885],75.1%
21,COc1cc(SC)ccc1C(=O)N1CCCC(C)C1 (stereo not drawn) [MMV056726],67.3%
22,CCOc1ccc(C2N(C)c3ccccc3N2C)cc1 [MMV075490],89.5%
23,CCOc1cc(Br)c(C(C)NC(=O)c2cccc(OC)c2)cc1OCC (stereo not drawn) [MMV665796],96.9%
24,FC(F)(F)c1cccc(Nc2nc(-c3ccccc3)nc3ncccc23)c1 [MMV665798],98.3%
